Source: PubChem BioAssay (NCI)
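Results reflect a 48-hour exposure of cells in 96-well plates to compound at five concentrations. GI50 = concentration required for 50% inhibition of growth. TGI marks complete inhibition of growth.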

Columns and labels:
Experiment in all cases: NCI anticancer screen, dose series, 48 h
[1] = system: MALME-3M melanoma
[2] = system: NCI-H226 lung
[3] = system: HCC-2998 colon
[4] = system: CAKI-1 renal
[5] = system: SN12C renal
[6] = system: HL-60(TB) leukemia
[7] = system: A549 NSCLC
[8] = system: SK-MEL-28 melanoma
[9] = system: SK-MEL-5 melanoma
[10] = system: NCI-H23 lung

SMILES: CCCC(C)C[C@@H](C)CC(C)/C=C(\C)c1oc(=O)c(C)c(O)c1C (stereo partly drawn) (tested in a mixture with another compound)
- TGI [1]: 9.17 µM
- TGI [2]: 30.4 µM
- TGI [3]: 25.5 µM
- TGI [4]: 28.1 µM
- TGI [5]: 29.1 µM
- TGI [6]: 29.8 µM
- TGI [7]: 34 µM
- TGI [8]: 28.2 µM

SMILES: O=C(Nc1ccc(F)cc1)C(=O)C(C1OC(=O)c2ccccc21)[N+](=O)[O-] (stereo not drawn)
- TGI [1]: > 100 µM
- TGI [2]: > 100 µM
- TGI [3]: > 100 µM
- TGI [4]: > 100 µM
- TGI [9]: > 100 µM
- TGI [10]: > 100 µM
- TGI [6]: > 100 µM
- TGI [7]: > 100 µM
- TGI [8]: > 100 µM

SMILES: C=CCN(CC=C)C(=O)c1cc(C)nc2c1c(=O)n(-c1ccccc1)c(=O)n2CC(O)CN1CCN(c2ncccn2)CC1 (stereo not drawn)
- GI50 [1]: > 100 µM
- TGI [1]: > 100 µM
- GI50 [2]: > 100 µM
- TGI [2]: > 100 µM
- GI50 [3]: > 100 µM
- TGI [3]: > 100 µM
- GI50 [4]: > 100 µM
- TGI [4]: > 100 µM
- GI50 [5]: > 100 µM
- TGI [5]: > 100 µM
- GI50 [9]: > 100 µM
- TGI [9]: > 100 µM
- GI50 [10]: > 100 µM
- TGI [10]: > 100 µM
- GI50 [6]: > 100 µM
- TGI [6]: > 100 µM
- GI50 [8]: 60.9 µM
- TGI [8]: > 100 µM

SMILES: CCOC(=O)C1=C(Nc2ccc(Cl)cc2Cl)OC/C1=N\NS(=O)(=O)c1ccc(C)cc1
- TGI [1]: > 100 µM
- TGI [2]: > 100 µM
- TGI [3]: > 100 µM
- TGI [4]: > 100 µM
- TGI [5]: > 100 µM
- TGI [9]: > 100 µM
- TGI [10]: > 100 µM
- TGI [6]: > 100 µM
- TGI [7]: > 100 µM
- TGI [8]: > 100 µM

SMILES: C=CCC(C(=O)O)c1ccccc1 (stereo not drawn)
- TGI [1]: > 100 µM
- TGI [2]: > 100 µM
- TGI [3]: > 100 µM
- TGI [4]: > 100 µM
- TGI [5]: > 100 µM
- TGI [9]: > 100 µM
- TGI [10]: > 100 µM
- TGI [6]: > 100 µM
- TGI [7]: > 100 µM
- TGI [8]: > 100 µM

SMILES: O=C(Nc1ccc(F)cc1F)c1cc(Br)ccc1O
- GI50 [1]: 1.85 µM
- TGI [1]: 5.75 µM
- GI50 [2]: 2.62 µM
- TGI [2]: 23.8 µM
- GI50 [3]: 3.75 µM
- TGI [3]: 29.9 µM
- GI50 [4]: 1.76 µM
- TGI [4]: 6.66 µM
- GI50 [5]: 2.26 µM
- TGI [5]: 9.26 µM
- GI50 [9]: 1.59 µM
- TGI [9]: 3.34 µM
- GI50 [10]: 2.43 µM
- TGI [10]: 9.21 µM
- GI50 [6]: 2.44 µM
- TGI [6]: 7.17 µM
- GI50 [7]: 3.26 µM
- TGI [7]: > 100 µM
- GI50 [8]: 1.43 µM
- TGI [8]: 6.24 µM

SMILES: NC1CCCCC1N.O=S(=O)([O-])CCCN1CCOCC1.O=S(=O)([O-])CCCN1CCOCC1.[Pt+4]
- GI50 [1]: 5.23 µM
- TGI [1]: 22.5 µM
- GI50 [2]: 22.5 µM
- TGI [2]: > 100 µM
- GI50 [3]: 36.3 µM
- TGI [3]: > 100 µM
- GI50 [4]: 5.01 µM
- TGI [4]: > 85.8 µM
- GI50 [5]: 10.7 µM
- TGI [5]: > 100 µM
- GI50 [9]: 9.83 µM
- TGI [9]: 22.2 µM
- GI50 [10]: 18.2 µM
- TGI [10]: > 92.2 µM
- GI50 [6]: 4.81 µM
- TGI [6]: 19.7 µM
- GI50 [7]: 4.72 µM
- TGI [7]: > 100 µM
- GI50 [8]: 5.32 µM
- TGI [8]: 48.3 µM

SMILES: CC1(C)CC(n2cnc(-c3ccc(F)cc3)c2-c2ccnc(N)n2)CC(C)(C)N1
- GI50 [1]: > 25 µM
- TGI [1]: > 25 µM
- GI50 [2]: > 13.9 µM
- TGI [2]: > 25 µM
- GI50 [3]: > 25 µM
- TGI [3]: > 25 µM
- GI50 [4]: > 25 µM
- TGI [4]: > 25 µM
- GI50 [5]: 17.9 µM
- TGI [5]: > 25 µM
- GI50 [9]: > 16.2 µM
- TGI [9]: > 25 µM
- GI50 [10]: > 25 µM
- TGI [10]: > 25 µM
- GI50 [6]: > 25 µM
- TGI [6]: > 25 µM
- GI50 [7]: 12.5 µM
- TGI [7]: > 25 µM
- GI50 [8]: > 25 µM
- TGI [8]: > 25 µM

SMILES: Cc1cccc(C)c1NC(=O)CCc1nnc2s/c(=C\c3ccc(Cl)cc3)c(=O)n12
- TGI [1]: > 100 µM
- TGI [2]: > 100 µM
- TGI [3]: > 100 µM
- TGI [4]: > 100 µM
- TGI [5]: > 100 µM
- TGI [9]: > 100 µM
- TGI [10]: > 100 µM
- TGI [6]: > 100 µM
- TGI [7]: > 100 µM
- TGI [8]: > 100 µM

SMILES: NC(=N\N=C/c1cccc([N+](=O)[O-])c1)/C(N)=N\N=C/c1cccc([N+](=O)[O-])c1
- GI50 [1]: > 100 µM
- TGI [1]: > 100 µM
- GI50 [2]: > 100 µM
- TGI [2]: > 100 µM
- GI50 [3]: > 100 µM
- TGI [3]: > 100 µM
- GI50 [4]: > 100 µM
- TGI [4]: > 100 µM
- GI50 [5]: > 100 µM
- TGI [5]: > 100 µM
- GI50 [9]: > 100 µM
- TGI [9]: > 100 µM
- GI50 [10]: > 100 µM
- TGI [10]: > 100 µM
- GI50 [6]: > 100 µM
- TGI [6]: > 100 µM
- GI50 [8]: > 100 µM
- TGI [8]: > 100 µM

SMILES: C[C@]12CC[C@H](OCCC#N)CC1=CC[C@@H]1C2CC[C@]2(C)/C(=N/OCCC#N)CCC12 (stereo partly drawn)
- TGI [1]: > 100 µM
- TGI [2]: > 100 µM
- TGI [3]: > 100 µM
- TGI [4]: > 100 µM
- TGI [5]: > 100 µM
- TGI [9]: > 100 µM
- TGI [10]: > 100 µM
- TGI [6]: > 100 µM
- TGI [7]: > 100 µM
- TGI [8]: > 100 µM

SMILES: Cc1cc(-c2nnc(N)nc2-c2ccc(F)cc2)cc(Cl)n1
- GI50 [1]: > 100 µM
- TGI [1]: > 100 µM
- GI50 [2]: 46.9 µM
- TGI [2]: > 100 µM
- GI50 [3]: > 100 µM
- TGI [3]: > 100 µM
- GI50 [4]: 43.8 µM
- TGI [4]: > 100 µM
- GI50 [5]: > 100 µM
- TGI [5]: > 100 µM
- GI50 [9]: 25.5 µM
- TGI [9]: > 100 µM
- GI50 [10]: 54.3 µM
- TGI [10]: > 100 µM
- GI50 [6]: 33.6 µM
- TGI [6]: > 100 µM
- GI50 [7]: > 100 µM
- TGI [7]: > 100 µM
- GI50 [8]: > 100 µM
- TGI [8]: > 100 µM

SMILES: COc1cc(C(=O)C/C(CCC(=O)Nc2ccc(Cl)cc2C)=N/NC(=O)C(N)=O)ccc1O
- TGI [1]: > 100 µM
- TGI [2]: > 100 µM
- TGI [3]: > 100 µM
- TGI [4]: > 100 µM
- TGI [5]: > 100 µM
- TGI [9]: > 100 µM
- TGI [10]: > 100 µM
- TGI [6]: > 100 µM
- TGI [7]: > 100 µM

SMILES: CCCCc1ccc(-n2c3nc(=O)n(C)c(=O)c-3nc3ccccc32)cc1
- TGI [1]: 19.7 µM
- TGI [2]: 26.6 µM
- TGI [3]: 16.3 µM
- TGI [4]: 54.5 µM
- TGI [5]: 20.9 µM
- TGI [9]: 3.01 µM
- TGI [10]: 8.19 µM
- TGI [6]: 32.5 µM
- TGI [7]: 22 µM

SMILES: Nc1ncn(C2C=C(CO)C(O)C2O)c(=O)n1 (stereo not drawn)
- TGI [1]: > 100 µM
- TGI [2]: > 100 µM
- TGI [3]: > 100 µM
- TGI [4]: > 100 µM
- TGI [5]: > 100 µM
- TGI [9]: > 100 µM
- TGI [6]: > 100 µM
- TGI [7]: > 100 µM
- TGI [8]: > 100 µM

SMILES: Cc1cc(N2CCN(c3ccnc4cc(Cl)ccc34)CC2)nc(NC2CCCCC2)n1
- GI50 [1]: 1.89 µM
- TGI [1]: 3.83 µM
- GI50 [2]: 3.23 µM
- TGI [2]: 15 µM
- GI50 [3]: 2 µM
- TGI [3]: 3.84 µM
- GI50 [4]: 1.63 µM
- TGI [4]: 3.6 µM
- GI50 [5]: 1.82 µM
- TGI [5]: 3.73 µM
- GI50 [9]: 1.73 µM
- TGI [9]: 3.3 µM
- GI50 [10]: 3.04 µM
- TGI [10]: 8.37 µM
- GI50 [6]: 2.25 µM
- TGI [6]: 5.32 µM
- GI50 [7]: 2.02 µM
- TGI [7]: 4.48 µM
